“And” between values parts separate entries of the source, which are not always exact repeats. Equal values may be shown once. Read-outs that look alike come from different tables or passages of the source.
Experiments:
[1] = system: patients who had severe ischemic cardiomyopathy and heart failure; assay: Hemodynamic effects of oral prazosin in congestive heart failure (Example 1); format: in vivo, human; conditions: for pressure.time per minute (index of myocardial oxygen demand): control 3293 ± 191
Excerpt: The study comprised ten patients, six males and four females, mean age 51 years (range 46 to 62 years) who had severe ischemic cardiomyopathy and heart failure documented in each by cardiac catheterization and coronary arteriography. The duration of heart failure symptoms ranged from one to six years. All patients were receiving digoxin and diuretics, while seven were also taking long-acting nitrate preparations for the chronic unloading effects of these agents, Williams, et al., Am. J. Cardiol., 39, 84 (1977) and Amsterdam, et al., Circulation, 52 [Suppl. 2] 150 (1975).
Left ventriculography confirmed extensive abnormalities of segmental contraction in the appropriate area in each patient and the mean ejection fraction for this group of patients was 0.18 ± 0.03 (SEM). […] The remaining two patients were clinically functional class IV with resting dyspnea and were not able to undergo exercise evaluation.
Hemodynamics: All patients were studied in the post-absorptive state; and informed consent was obtained in each. All cardiac medications including digoxin, diuretics and long-acting nitrates were withheld for at least 24 hours prior to study.
Systemic arterial pressure was measured directly through an intra-arterial Teflon catheter placed into a brachial artery. Right atrial (RA), pulmonary artery (PA) and pulmonary artery wedge (PAW) pressures, and cardiac output (CO) by thermodilution were recorded with the Swan-Ganz catheter. Cardiac outputs were performed in triplicate (less than 10 percent variation) utilizing iced-water and computations were accomplished by a bed-side computer (Santa Barbara, Technology, Inc., Santa Barbara, Calif.).
Derived hemodynamic variables were calculated as follows: stroke work index (SWI) in gm-m/M^2 = SI × (AP-LVFP) × 0.0136 here SI = stroke index, AP = mean systemic arterial pressure and LVFP = left ventricular filling pressure either as the mean PAW or PA diastolic pressure, the particular method utilized for this variable remaining constant throughout the study for each patient; total systemic vascular resistance (TSVR) = 80 [(AP-RA)/CO] where 80 converts mm. Hg. to dynes sec. cm.^-5 and RA = mean RA pressure; pressure.time per minute (PTM) in mm. Hg. sec. per minute = AP × ET × HR where ET = left ventricular ejection time and HR = heart rate.

patients [2] = system: patients; design: species or system human; conditions: in vivo
Excerpt: A finding of major importance which emerged from this investigation concerns the relative effects of prazosin on both venous and arteriolar smooth muscle. Prazosin is used clinically as an antihypertensive agent and the arterial dilating actions have been confirmed previously in experimental studies [Cohen, et al., J. Clin. Pharmacol., 10, 408 (1970)]. The important finding delineated herein that prazosin also effects substantial venodilation was of considerable physiologic significance since this unique action on systemic veins allows salutory extension of oral prazosin to the ambulatory therapy of chronic congestive heart failure. In this regard, in patients with normal left ventricular filling pressures, the prazosin-induced venous pooling and decline in cardiac return may lower ventricular preload to such a degree that the point of operation of the ventricle on the Frank-Starling relation is shifted substantially downward and to the left on its ascending limb with resultant decline in cardiac output despite lowered impedance. Furthermore, in the case of prazosin, the attenuation of reflex tachycardia by the agent in this circumstance of lowered stroke volume because of low preload, inhibits the principal regulatory mechanism which would otherwise compensate for the lowered stroke volume. […]

[3] = system: forearm blood flow, vascular resistance and venous tone of patients with heart failure; conditions: for forearm blood flow: control 1.29 ± 0.14; for forearm vascular resistance: control 88.9 ± 13.8
[4] = system: enzyme phosphodiesterase in vascular smooth muscle; conditions: cited from earlier work
[5] = system: contractile state of the heart; conditions: experimental studies; cited from earlier work
patients [6] = conditions: cited from earlier work
[7] = 1 hour post prazosin, individual patients
[8] = 60 minutes post prazosin vs. control
[9] = 3 hours post prazosin, group mean
[10] = 3 hours post prazosin, individual patients
[11] = 6 hours post prazosin, group mean
[12] = 6 hours post prazosin, individual patients
[13] = one hour post prazosin vs. control

## COc1cc2nc(N3CCN(C(=O)c4ccco4)CC3)nc(N)c2cc1OC [prazosin]
[1]; 30 minutes post prazosin
  cardiac index, patients responding: increased in each patient
  left ventricular filling pressure, patients responding: lowered in all 10 patients
  pressure.time per minute (index of myocardial oxygen demand): 2992 ± 208 mm. Hg. sec. per minute
[1]; 30 minutes post prazosin, group mean, control 2.07 ± 0.12
  Cardiac Index: 2.62 ± 0.11 L/min./M^2
[1]; 30 minutes post prazosin, group mean, control 2074 ± 183
  total systemic vascular resistance: 1448 ± 139 dynes sec. cm.^-5
[1]; 30 minutes post prazosin, p<0.01
  stroke work index, direction of change: increased
[1]; 30 minutes post prazosin, control 95.3 ± 5.3
  Mean Systemic Arterial Pressure: 86.1 ± 5.8 mm. Hg.
[1]; 1 hour (60 minutes) post prazosin, group mean, control 2.07
  CI (cardiac index), mean: 2.94 ± 0.10 L/min./M^2 and 2.9 L/min./M^2
[1]; 1 hour (60 minutes) post prazosin, group mean, control 23.3
  SWI (stroke work index), mean: 31.4 ± 5.1 gm.-m/M^2 and 31.4 gm.-m/M^2
[1]; 1 hour (60 minutes) post prazosin, group mean, control 30.2
  LVFP (left ventricular filling pressure), mean: 17.7 ± 1.4 mm. Hg. and 17.7 mm. Hg.
[1]; 1 hour post prazosin, group mean, control 84
  HR (heart rate), mean: 84 beats per minute
[1]; 1 hour post prazosin, group mean, control 95.3
  AP (mean systemic arterial pressure), mean: 77.8 mm. Hg.
[1]; 1 hour post prazosin, group mean, control 2074
  TSVR (total systemic vascular resistance), mean: 1156 ± 83 dynes sec. cm.^-5 and 1156 dynes sec. cm.^-5
[1]; [7]
  AP (mean systemic arterial pressure): 86 mm. Hg. and 62 mm. Hg. and 92 mm. Hg. and 69 mm. Hg. and 91 mm. Hg. and 77 mm. Hg. and 67 mm. Hg. and 64 mm. Hg. and 60 mm. Hg. and 110 mm. Hg.
  CI (cardiac index): 2.9 L/min./M^2 and 2.8 L/min./M^2 and 3.2 L/min./M^2 and 2.6 L/min./M^2 and 3.1 L/min./M^2 and 2.5 L/min./M^2 and 3.5 L/min./M^2
  LVFP (left ventricular filling pressure): 16 mm. Hg. and 19 mm. Hg. and 25 mm. Hg. and 11 mm. Hg. and 12 mm. Hg. and 18 mm. Hg. and 24 mm. Hg. and 21 mm. Hg. and 20 mm. Hg. and 13 mm. Hg.
  SWI (stroke work index): 41 gm.-m/M^2 and 23 gm.-m/M^2 and 34 gm.-m/M^2 and 24 gm.-m/M^2 and 44 gm.-m/M^2 and 29 gm.-m/M^2 and 17 gm.-m/M^2 and 15 gm.-m/M^2 and 20 gm.-m/M^2 and 68 gm.-m/M^2
  TSVR (total systemic vascular resistance): 1445 dynes sec. cm.^-5 and 1038 dynes sec. cm.^-5 and 1067 dynes sec. cm.^-5 and 920 dynes sec. cm.^-5 and 1549 dynes sec. cm.^-5 and 1011 dynes sec. cm.^-5 and 1477 dynes sec. cm.^-5 and 908 dynes sec. cm.^-5 and 836 dynes sec. cm.^-5 and 1304 dynes sec. cm.^-5
[1]; 1 hour post prazosin, oral 2 to 5 mg (one patient 7 mg), individual patients 1-10
  HR (heart rate): 66 beats per minute and 72 beats per minute and 90 beats per minute and 105 beats per minute and 62 beats per minute and 87 beats per minute and 86 beats per minute and 102 beats per minute
[1]; [8]
  change in cardiac index (maximal increase): +42%
  change in left ventricular filling pressure: -41%
  change in stroke work index (peak): +35%
[1]; [9]
  AP (mean systemic arterial pressure), mean: 78.6 mm. Hg.
  CI (cardiac index), mean: 2.7 L/min./M^2
  HR (heart rate), mean: 81 beats per minute
  LVFP (left ventricular filling pressure), mean: 17.9 mm. Hg.
  SWI (stroke work index), mean: 28.7 gm.-m/M^2
  TSVR (total systemic vascular resistance), mean: 1303 dynes sec. cm.^-5
[1]; [10]
  AP (mean systemic arterial pressure): 79 mm. Hg. and 67 mm. Hg. and 90 mm. Hg. and 72 mm. Hg. and 80 mm. Hg. and 77 mm. Hg. and 68 mm. Hg. and 69 mm. Hg. and 104 mm. Hg.
  CI (cardiac index): 3.1 L/min./M^2 and 2.4 L/min./M^2 and 2.0 L/min./M^2 and 2.9 L/min./M^2 and 2.3 L/min./M^2 and 2.8 L/min./M^2 and 3.3 L/min./M^2 and 2.5 L/min./M^2
  HR (heart rate): 66 beats per minute and 70 beats per minute and 85 beats per minute and 100 beats per minute and 61 beats per minute and 72 beats per minute and 112 beats per minute and 80 beats per minute and 99 beats per minute
  LVFP (left ventricular filling pressure): 21 mm. Hg. and 23 mm. Hg. and 14 mm. Hg. and 11 mm. Hg. and 20 mm. Hg. and 22 mm. Hg. and 25 mm. Hg. and 18 mm. Hg. and 16 mm. Hg.
  SWI (stroke work index): 45 gm.-m/M^2 and 25 gm.-m/M^2 and 32 gm.-m/M^2 and 22 gm.-m/M^2 and 36 gm.-m/M^2 and 26 gm.-m/M^2 and 16 gm.-m/M^2 and 17 gm.-m/M^2 and 24 gm.-m/M^2 and 44 gm.-m/M^2
  TSVR (total systemic vascular resistance): 1222 dynes sec. cm.^-5 and 1307 dynes sec. cm.^-5 and 1125 dynes sec. cm.^-5 and 1069 dynes sec. cm.^-5 and 1484 dynes sec. cm.^-5 and 1294 dynes sec. cm.^-5 and 1850 dynes sec. cm.^-5 and 1135 dynes sec. cm.^-5 and 840 dynes sec. cm.^-5 and 1708 dynes sec. cm.^-5
[1]; 6 hours
  persistence of reduction of pressure.time per minute: remained diminished for 6 hours
  persistence of reduction of total systemic vascular resistance: significant (p<0.001) reduction in TSVR persisted for the entire 6 hour observation
[1]; [11]
  AP (mean systemic arterial pressure), mean: 86.0 mm. Hg.
  CI (cardiac index), mean: 2.4 L/min./M^2
  HR (heart rate), mean: 75 beats per minute
  LVFP (left ventricular filling pressure), mean: 19.7 mm. Hg.
  SWI (stroke work index), mean: 29.9 gm.-m/M^2
  TSVR (total systemic vascular resistance), mean: 1639 dynes sec. cm.^-5
[1]; [12]
  AP (mean systemic arterial pressure): 75 mm. Hg. and 80 mm. Hg. and 100 mm. Hg. and 102 mm. Hg. and 85 mm. Hg. and 74 mm. Hg.
  CI (cardiac index): 3.1 L/min./M^2 and 2.4 L/min./M^2 and 2.6 L/min./M^2 and 2.2 L/min./M^2 and 2.1 L/min./M^2
  HR (heart rate): 70 beats per minute and 72 beats per minute and 90 beats per minute and 56 beats per minute and 78 beats per minute and 86 beats per minute
  LVFP (left ventricular filling pressure): 13 mm. Hg. and 20 mm. Hg. and 23 mm. Hg. and 15 mm. Hg. and 18 mm. Hg. and 29 mm. Hg.
  SWI (stroke work index): 38 gm.-m/M^2 and 27 gm.-m/M^2 and 30 gm.-m/M^2 and 45 gm.-m/M^2 and 25 gm.-m/M^2 and 15 gm.-m/M^2
  TSVR (total systemic vascular resistance; head TSVB): 1158 dynes sec. cm.^-5 and 1550 dynes sec. cm.^-5 and 1455 dynes sec. cm.^-5 and 2066 dynes sec. cm.^-5 and 1638 dynes sec. cm.^-5 and 1973 dynes sec. cm.^-5
[1]; entire study period
  persistence of reduction of left ventricular filling pressure: remained significantly (p<0.001) reduced throughout the entire study period
[1]; following prazosin
  total systemic vascular resistance, patients responding: reduced in each patient
[1]; following prazosin, control 84 ± 5.1 beats per minute, p>0.05
  change in heart rate: not statistically different
[1]; [13]
  change in pressure.time per minute: -15%
  change in total systemic vascular resistance: -44
[1]; one hour post prazosin
  pressure.time per minute (index of myocardial oxygen demand): 2793 ± 188 mm. Hg. sec. per minute
[1]; one patient, 2 hours following first dose
  response in systemic blood pressure or left ventricular filling pressure: no alteration in systemic blood pressure or left ventricular filling pressure
[1]; six hours vs. control
  persistence of increase in cardiac index: remaining significantly (p<0.01) elevated at six hours
[1]; throughout the observation period
  persistence of lowering of mean systemic arterial pressure: remained significantly (p<0.001 or p<0.01) lowered throughout the observation period
[1]; two hours post prazosin vs. control
  change in mean systemic arterial pressure: -20%
[1]; two hours post prazosin, control 95.3 ± 5.3
  mean systemic arterial pressure, maximal hypotensive effect: 76.2 ± 3.8 mm. Hg.
Patients [2]
  syncope or other untoward effects: no syncope or other untoward effects occurred
[3]; 30 minutes post prazosin
  forearm vascular resistance, patients responding: lowered by prazosin in all patients
  ratio of percent reduction of forearm vascular resistance to percent decline in forearm venous tone: 0.49
  forearm blood flow: 1.71 ± 0.25 ml./100 gm./minute
  forearm vascular resistance: 58.4 ± 6.1 mm. Hg./ml./100 gm./min.
[3]; 30 minutes post prazosin vs. control
  change in forearm venous tone: -69%
[3]; 30 minutes post prazosin, control 58.9 ± 13.8
  venous tone in the forearm: 18.5 ± 3.9 ml./mm. Hg.
[3]; 1 hour post prazosin
  ratio of percent reduction of forearm vascular resistance to percent decline in forearm venous tone: 0.67
[3]; 60 minutes post prazosin
  forearm blood flow: 1.95 ± 0.33 ml./100 gm./minute
[3]; 6 hours
  persistence of increase in forearm blood flow: remained increased for the entire 6 hours
[3]; [13]
  change in forearm vascular resistance: -47%
[3]; one hour post prazosin
  forearm vascular resistance: 47.9 ± 5.8 mm. Hg./ml./100 gm./min.
[3]; six hours
  persistence of decline in forearm vascular resistance: persisted for the six hour study period
  persistence of lowering of forearm venous tone: remained lowered at this level for the entire six hour observation period
[4]; myocardium
  cyclic GMP: increased levels of cyclic GMP
[4]; vascular smooth muscle
  cyclic AMP: accumulation of cyclic AMP
  inhibition of phosphodiesterase: inhibition of the enzyme phosphodiesterase
[5]
  effects on the contractile state of the heart: neither direct nor sympathetically mediated indirect effects
Patients [6]; hypertensive patients
  tolerability in long-term administration: relatively well tolerated
Patients [6]; in vivo
  excessive hypotension: reported to occasionally occur
  serologic side effects resembling hydralazine-induced lupus erythematosus: no reports of serologic side effects
Patients [6]; patient receiving prazosin for hypertension
  febrile polyarthritis: reported in a single patient

From US4130647A, “Methods for treating congestive heart failure and ischemic heart disease” (priority 1977, dated 1978)
